Measured values from patent US20240400562A1, “COMPOUNDS AND COMPOSITIONS FOR TREATING CONDITIONS ASSOCIATED WITH LPA RECEPTOR ACTIVITY” (LHOTSE, BIO, INC., priority 2021, published 2024).

Legend:
human LPA1 = target: T1, human LPA1 (Homo sapiens, UniProt Q92633); assay: In vitro LPA1 calcium flux antagonist assay; type: cell-based; conditions: CHO-K1 cells overexpressing human LPA1 and G15a, LPA challenge at EC80, FLIPR calcium mobilization
T1 construct: expressed in transfected cells; host or cells: CHO-K1
Method: CHO-K1 cells overexpressing human LPA1 and G15a were seeded at a total volume of 20 μL (15000 cells/well) into Matrigel pre-coated 384-well plates (corning −3764) and incubated at 37° C. After overnight incubation, the cells were serum starved for 4 h. Assays were performed in dye loading buffer containing 1×Fluo-8 AM (AAT Bioquest, 21080) and 2.5 mM probenecid (Thermo Fisher, 36400) in HBSS/20 mM Hepes. After cell starvation, the medium was replaced with 20 μL of dye loading buffer and incubated at 37° C. for 30 min. Then 5 μL of 5× compound titrated in dye loading buffer was added to the cells and incubated for 30 min followed by LPA challenge at EC80. Calcium mobilization was measured on a FLIPR Tetra (MDS). For LPA EC80 determination, starved cells were incubated with 20 μL of dye loading buffer for 1 h, then 5 μL of 5×LPA titrated in dye loading buffer was added to the cells. Calcium signals induced by LPA was monitors on a FLIPR.
Percentage inhibition is calculated using the following formula: […]

[1] = Pharmacokinetics measurements in rats; type: in vivo; conditions: SD male rats, plasma; for Cl_obs / AUC(0-t) / Cmax / Tmax: mean; for bioavailability / AUC(0-t) / Cmax / Tmax: rat; for bioavailability: PO 5 mg/kg vs IV 1 mg/kg
Method: The PK properties of selected compounds were measured in SD Male rats following single oral (5 mg/kg) and Intravenous Administration (1 mg/kg).
Compounds 103 and 104 were prepared in a 1 mg/mL solution of 10% Solutol HS15 and 90% saline for oral administrations at 5 mL/kg and 0.2 mg/mL solution of 10% Solutol HS15 and 90% saline for intravenous administrations at 1 mL/kg, respectively, and administered to 3 rats per group. After dosing, blood collection was performed by Jugular vein sampling (by cannula) at 0.25, 0.5, 1, 2, 4, 6, 8, 24 h, and 0.083, 0.25, 0.5, 1, 2, 4, 8, 24 h, respectively, followed by centrifugation to obtain plasma. Samples were stored frozen at −80° C. prior to compound extraction and LC-MS/MS analysis. Pharmacokinetic parameters of compounds 103 and 104 in rats were calculated by standard noncompartmental modeling from the systemic plasma concentration-time profile.

[2] = Pharmacokinetics measurements in mice; type: in vivo; conditions: mouse; CD1 female mice, single oral 5 mg/kg, plasma, mean
Method: The PK properties of selected compounds were measured in CD1 female mice following single oral (5 mg/kg) administration.
Compounds 103 and 104 were prepared in a 1 mg/mL solution of 10% Solutol HS15 and 90%, saline for oral administrations at 5 mL/kg, respectively, and administered to 3 mice/3 groups. After dosing, blood collection was performed by dorsal metatarsal vein sampling at 0.25, 0.5, 1, 2, 4, 6, 8, 24 h, followed by centrifugation to obtain plasma. Samples were stored frozen at −80° C. prior to compound extraction and LC-MS/MS analysis. Pharmacokinetic parameters of compounds 103 and 104 in mice were calculated by standard noncompartmental modeling from the systemic plasma concentration-time profile.

T1 sequence (Q92633 whole entry): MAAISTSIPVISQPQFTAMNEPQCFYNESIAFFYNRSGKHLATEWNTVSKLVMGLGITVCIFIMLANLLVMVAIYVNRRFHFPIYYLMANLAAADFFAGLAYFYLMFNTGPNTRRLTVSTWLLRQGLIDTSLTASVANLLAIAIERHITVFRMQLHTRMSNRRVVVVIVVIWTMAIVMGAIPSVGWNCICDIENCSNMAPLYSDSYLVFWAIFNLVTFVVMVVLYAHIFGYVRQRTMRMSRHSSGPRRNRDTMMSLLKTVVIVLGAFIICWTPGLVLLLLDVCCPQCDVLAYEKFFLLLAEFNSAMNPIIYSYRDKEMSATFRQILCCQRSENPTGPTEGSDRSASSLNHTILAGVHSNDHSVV

Structure (SMILES): CCOc1cc(C(=O)O)c2nc(C[C@H](OC3CCCC3)[C@H](O)c3cc(OC)cc(OC)c3)sc2c1 [Compound 111]
- IC50 (human LPA1): 10 to 100 nM

Structure (SMILES): COc1cc([C@@H](O)[C@H](Cc2nc3c(C(=O)O)ccc(OC)c3s2)OC2CCCC2)cc(OC)c1C [Compound 107, 2-((2S,3R)-2-(cyclopentyloxy)-3-(3,5-dimethoxy-4-methylphenyl)-3-hydroxypropyl)-7-methoxybenzo[d]thiazole-4-carboxylic acid]
- IC50 (human LPA1): < 10 nM

Structure (SMILES): COc1cc(C(=O)O)c2nc(C[C@H](OC3CCCC3)[C@H](O)c3ccc(C(F)F)c(OC)c3)sc2c1 [Compound 102, 2-((2S,3R)-2-(cyclopentyloxy)-3-(4-(difluoromethyl)-3-methoxyphenyl)-3-hydroxypropyl)-6-methoxybenzo[d]thiazole-4-carboxylic acid]
- IC50 (human LPA1): < 10 nM

Structure (SMILES): CNc1ccc(C(=O)O)n2nc(C[C@H](OC3CCCC3)[C@H](O)c3cc(OC)c(C)c(OC)c3)cc12 [Compound 108, 2-((2S,3R)-2-(cyclopentyloxy)-3-(3,5-dimethoxy-4-methylphenyl)-3-hydroxypropyl)-4-(methylamino)pyrazolo[1,5-a]pyridine-7-carboxylic acid]
- IC50 (human LPA1): 10 to 100 nM

Structure (SMILES): COCc1cc(C(=O)O)c2nc(C[C@H](OC3CCCC3)[C@H](O)c3cc(OC)c(C)c(OC)c3)sc2c1 [Compound 104, 2-((2S,3R)-2-(cyclopentyloxy)-3-(3,5-dimethoxy-4-methylphenyl)-3-hydroxypropyl)-6-(methoxymethyl)benzo[d]thiazole-4-carboxylic acid]
- Cl_obs ([1]; IV 1 mg/kg): 8.8 mL/min/kg
- bioavailability [1]: 30.3%
- AUC(0-t) ([1]; IV 1 mg/kg): 1900 ng·h/mL
- AUC(0-t) ([1]; PO 5 mg/kg): 2890 ng·h/mL
- Cmax ([1]; PO 5 mg/kg): 1520 ng/mL
- Tmax ([1]; PO 5 mg/kg): 15 min
- IC50 (human LPA1): < 10 nM
- AUC(0-t) [2]: 6950 ng·h/mL
- Cmax [2]: 3840 ng/mL
- Tmax [2]: 15 min

Structure (SMILES): CNc1cc(C(=O)O)c2nc(C[C@H](OC3CCCC3)[C@H](O)c3cc(OC)c(C)c(OC)c3)sc2c1 [Compound 105, 2-((2S,3R)-2-(cyclopentyloxy)-3-(3,5-dimethoxy-4-methylphenyl)-3-hydroxypropyl)-6-(methylamino)benzo[d]thiazole-4-carboxylic acid]
- IC50 (human LPA1): < 10 nM

Structure (SMILES): COc1cc([C@@H](O)[C@H](Cc2nc3c(C(=O)O)cc(CO)cc3s2)OC2CCCC2)cc(OC)c1C [Compound 103, 2-((2S,3R)-2-(cyclopentyloxy)-3-(3,5-dimethoxy-4-methylphenyl)-3-hydroxypropyl)-6-(hydroxymethyl)benzo[d]thiazole-4-carboxylic acid]
- Cl_obs ([1]; IV 1 mg/kg): 12.9 mL/min/kg
- bioavailability [1]: 27.3%
- AUC(0-t) ([1]; IV 1 mg/kg): 1330 ng·h/mL
- AUC(0-t) ([1]; PO 5 mg/kg): 1790 ng·h/mL
- Cmax ([1]; PO 5 mg/kg): 1490 ng/mL
- Tmax ([1]; PO 5 mg/kg): 15 min
- IC50 (human LPA1): 10 to 100 nM
- AUC(0-t) [2]: 1640 ng·h/mL
- Cmax [2]: 463 ng/mL
- Tmax [2]: 30 min

Structure (SMILES): CCOc1cc(C(=O)O)c2nc(C[C@H](OC3CCCC3)[C@H](O)c3ccc(C(F)F)c(OC)c3)sc2c1 [Compound 112]
- IC50 (human LPA1): 10 to 100 nM

Structure (SMILES): CCOc1ccc(C(=O)O)n2nc(C[C@H](OC3CCCC3)[C@H](O)c3cc(OC)c(C)c(OC)c3)cc12 [Compound 113]
- IC50 (human LPA1): 10 to 100 nM

Structure (SMILES): CCOc1ccc(C(=O)O)c2nc(C[C@H](OC3CCCC3)[C@H](O)c3cc(OC)c(C)c(OC)c3)sc12 [Compound 109]
- IC50 (human LPA1): < 10 nM

Structure (SMILES): CCOc1cc(C(=O)O)c2nc(C[C@H](OC3CCCC3)[C@H](O)c3ccc(C)c(OC)c3)sc2c1 [Compound 101, 2-((2S,3R)-2-(cyclopentyloxy)-3-hydroxy-3-(3-methoxy-4-methylphenyl)propyl)-6-ethoxybenzo[d]thiazole-4-carboxylic acid]
- IC50 (human LPA1): < 10 nM

Structure (SMILES): COc1cc([C@@H](O)[C@H](Cc2nc3c(C(=O)O)cc(N(C)C)cc3s2)OC2CCCC2)cc(OC)c1C [Compound 106, 2-((2S,3R)-2-(cyclopentyloxy)-3-(3,5-dimethoxy-4-methylphenyl)-3-hydroxypropyl)-6-(dimethylamino)benzo[d]thiazole-4-carboxylic acid]
- IC50 (human LPA1): < 10 nM

Structure (SMILES): COc1cc([C@@H](O)[C@H](Cc2cc3c(N(C)C)ccc(C(=O)O)n3n2)OC2CCCC2)cc(OC)c1C [Compound 110]
- IC50 (human LPA1): > 100 nM

Structure (SMILES): CCCc1sc(C[C@H](OC2CCCC2)[C@H](O)c2cc(OC)c(C(C)=O)c(OC)c2)nc1C(C)C(=O)O (some centres unmarked) [Compound 114]
- IC50 (human LPA1): 10 to 100 nM
